Where two headings read alike, the source gives them in different places.
Columns and labels:
[1] = Cytotoxicity, CCK8; type: cell-based; details: human, 12 h
Protocol: The absorbance of 450 nm was measured in an ELISA reader (BioTek-Synergy 4, USA). Then, cell viability was calculated, and the corresponding images were drawn with GraphPad Prism 9.

[2] = tested on: A549; assay: Anticancer activity IC50; type: cell-based; details: Homo sapiens, abstract only
[3] = target: T1, FtsZ protein (Staphylococcus aureus, UniProt P0A031); assay: Affinity assay by SPR technology; type: binding, S. aureus
T1 construct: His tag; made in house; host or cells: E. coli BL21(DE3)
Protocol: FtsZ Pre-Enrichment: FtsZ purified protein was dissolved in deionized water and prepared into a 1 g/L protein stock solution. Afterwards, protein concentration was diluted to 50 mg/L, respectively, using four different pH acetate buffer solutions (pH 4.0, 4.5, 5.0, 5.5). Subsequently, samples were injected, and the response values of protein FtsZ under different pH conditions were detected using the Biacore pre-enrichment system to determine the optimal protein coupling conditions.
FtsZ Coupling: Before coupling, the CM5 chip was first activated by EDC/NHS solution for 7 min; then, protein coupling was carried out, with a coupling time of 10 min and a protein flow rate of 10 μL/min; finally, the unreacted active sites on the chip were blocked by ethanolamine for 7 min.
The compounds were dissolved in DMSO, and then diluted to 50 μM with PBS (final concentration of DMSO was 5%). The mobile phase was a PBS solution containing 5% DMSO. The response value of the samples flowing through the surface of the FtsZ protein was analyzed by the Biacore T200 system. The monomer compounds with a higher response value to FtsZ (higher than or equal to the positive control) were screened as candidate compounds.
The concentration of candidate compounds was diluted by gradient with a double ratio, with concentration ranging from 0 to 64 μM (the final concentration of DMSO was 5%). Then, the binding response value was obtained. Kinetic curves were drawn according to the dose–effect relationship between the response value and the concentration of candidate compounds, and the binding specificity of candidate compounds and FtsZ was determined according to the curve fitting. Thus, small molecular monomers that can bind specifically to the FtsZ protein were found.

[4] = tested on: S. aureus BNCC336423; assay: Time–killing curve; type: cell-based; details: S. aureus BNCC336423, concentrations of 4× the MIC or greater
Protocol: S. aureus BNCC336423 was employed for the time–killing curve study. […] Meanwhile, DMSO with an equivalent volume was added to the vehicle control tube. The cultures were then subjected to shaking incubation at 37 °C. Subsequently, cultures were taken out at predetermined time intervals (0, 1, 2, 4, 6, 8, and 24 h), centrifuged at 16,000×g for 3 min, and diluted to an appropriate multiple. These diluted samples were then plated onto Tryptic Soy Agar (TSA) plates for enumeration. Following a 24 h incubation period at 37 °C, colonies on the TSA plates were counted for the CFU/mL, thereby providing insights into the time-dependent bactericidal activity of the tested compounds.

[5] = tested on: Hela; assay: Antiproliferative activity, CCK8; type: cell-based; details: Homo sapiens
Protocol: (§1) Antiproliferative activities of compounds were detected by employing the CCK8 method. HepG2, MCF-7, and Hela cells were cultured to log phase in DMEM medium supplemented with 10% fetal bovine serum. Cells were diluted to 2 × 10^4 cells/mL, and 100 µL of the obtained suspension was seeded in each well of the 96-well microplates, which were then cultured at 37 °C overnight. Subsequently, cells were treated with compounds at different concentrations. After co-culturing for 48 h, wells were washed with PBS three times and filled with 100 μL DMEM complete medium, which contained CCK8. After culturing for 2 h at 37 °C, the absorbance of measured and recorded on an ELISA reader (BioTek-Synergy 4, Winooski, VT, USA) at a test wavelength of 450 nm. Three replicate wells were employed for each drug concentration, and each assay was conducted at least three times.

[6] = tested on: HepG2; assay: Antiproliferative activity, CCK8; type: cell-based; details: Homo sapiens, HepG2, 48 h, read-out: cell viability HepG2
Protocol: as §1

[7] = tested on: MCF-7; assay: Antiproliferative activity, CCK8; type: cell-based; details: Homo sapiens
Protocol: as §1

[8] = 48 h, read-out: cell viability Hela
[9] = MCF7, 48 h, read-out: cell viability MCF-7

T1 sequence (P0A031 whole entry): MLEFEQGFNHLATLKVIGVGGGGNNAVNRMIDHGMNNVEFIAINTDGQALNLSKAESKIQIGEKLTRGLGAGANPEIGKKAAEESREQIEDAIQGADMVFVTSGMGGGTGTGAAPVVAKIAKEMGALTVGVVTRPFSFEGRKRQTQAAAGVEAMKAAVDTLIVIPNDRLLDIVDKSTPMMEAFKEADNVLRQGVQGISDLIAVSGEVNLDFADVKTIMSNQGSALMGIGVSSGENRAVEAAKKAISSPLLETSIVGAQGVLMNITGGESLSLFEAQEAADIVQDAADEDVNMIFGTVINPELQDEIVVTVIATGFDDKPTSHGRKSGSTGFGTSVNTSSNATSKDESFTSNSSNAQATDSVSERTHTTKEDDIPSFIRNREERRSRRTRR

Question: For `CC(C)(C)c1[nH]cnc1/C=c1\[nH]c(=O)/c(=C/c2ccccc2)[nH]c1=O` [Compound 23, Plinabulin], which viability at 100 µM ([1]; read-out: cell viability HT293 (293T)) is on record?
Answer: 79%

Question: What about the viability at 100 µM ([1]; read-out: cell viability LO2) of the same molecule?
Answer: 81%

Question: What about the IC50 [2] of the same molecule?
Answer: 12 nM

Question: And the Kd [3]?
Answer: 15300 nM

Question: What about the “Chi^2” value ([3]; SPR fit) of the same molecule?
Answer: 0.234

Question: And the Rmax ([3]; SPR, CM5 chip)?
Answer: 11.82 RU

Question: What about the “logs of kill in time–kill” value [4] of the same molecule?
Answer: 3 logs

Question: What about the viability at 0.1 µM [5, 8] of the same molecule?
Answer: 26%

Question: And the viability at 1 µM [5, 8]?
Answer: 19%

Question: What about the IC50 ([5]; abstract only) of the same molecule?
Answer: 10 nM

Question: And the viability at 0.1 µM [6]?
Answer: 30.5%

Question: And the viability at 1 µM [6]?
Answer: 11.5%

Question: And the viability at 0.1 µM [7, 9]?
Answer: 27.5%

Question: And the viability at 1 µM [7, 9]?
Answer: 10%

Question: What about the IC50 ([7]; MCF7, abstract only) of the same molecule?
Answer: 20 nM

From paper PMC12561670, “Isolation of Dual-Active Drugs with Anticancer and Antibacterial Activities That Target Both Tubulin and FtsZ” (Antibiotics, 2025)
